According to patent publication US10835719B2, “Drug releasing coatings for medical devices” (Lutonix, Inc., priority 2006, dated 2020):

How the values were obtained:
[1] = cited from earlier work
[2] = Stability of additive with paclitaxel under ethylene oxide sterilization, heating and aging; format: physicochemical; conditions: additive formulated with paclitaxel; reacted with paclitaxel
albumin = albumin (Homo sapiens, UniProt P02768); conditions: cited from earlier work
albumin, sequence (P02768 25-609): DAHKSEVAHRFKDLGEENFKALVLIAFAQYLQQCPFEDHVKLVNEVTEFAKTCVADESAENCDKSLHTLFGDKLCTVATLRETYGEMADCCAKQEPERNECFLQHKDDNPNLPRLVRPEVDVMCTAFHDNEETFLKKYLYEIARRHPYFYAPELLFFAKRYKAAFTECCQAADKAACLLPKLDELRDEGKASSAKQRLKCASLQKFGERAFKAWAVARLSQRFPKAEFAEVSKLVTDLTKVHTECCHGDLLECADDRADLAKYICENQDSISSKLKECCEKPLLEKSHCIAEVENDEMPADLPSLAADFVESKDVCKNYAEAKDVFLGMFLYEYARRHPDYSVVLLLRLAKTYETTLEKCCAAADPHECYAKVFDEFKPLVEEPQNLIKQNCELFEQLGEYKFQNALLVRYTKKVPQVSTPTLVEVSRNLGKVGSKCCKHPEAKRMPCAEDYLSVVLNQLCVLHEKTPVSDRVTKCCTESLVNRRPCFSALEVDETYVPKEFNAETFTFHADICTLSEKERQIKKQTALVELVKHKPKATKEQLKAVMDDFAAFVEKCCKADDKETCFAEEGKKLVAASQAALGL

Row | stability under ethylene oxide sterilization, heating, and aging process [2] | Molecule | further results
1 |  | COc1ccc(O)c(C(C)(C)C)c1 [Butylated hydroxyanisole (BHA), Butylated hydroxyanisole] | log P [1]: 1.31
2 | not stable | O=C1O[C@H]([C@@H](O)CO)C(O)=C1O [ascorbic acid] | 
3 | not stable | OCCNCCO [diethanolamine] | 
4 | not stable | O=C(O)c1cc(O)ccc1O [gentisic acid] | 
5 |  | CO[C@H]1C[C@@H]2CC[C@@H](C)[C@@](O)(O2)C(=O)C(=O)N2CCCC[C@H]2C(=O)O[C@H]([C@H](C)C[C@@H]2CC[C@@H](O)[C@H](OC)C2)CC(=O)[C@H](C)/C=C(\C)[C@@H](O)[C@@H](OC)C(=O)[C@H](C)C[C@H](C)/C=C/C=C/C=C/1C [rapamycin] | protein bound (albumin): 92%
6 |  | PEG-20 sorbitan monolaurate [Tween 20] | log P [1]: about 3.0

Row | Molecule | stability under ethylene oxide sterilization, heating, and aging process [2] | further results
7 | O=C(O)c1ccccc1 [benzoic acid] | not stable | 
